Experimental data taken from publication PMC3116189, “Novel Natural Inhibitors of CYP1A2 Identified by in Silico and in Vitro Screening” (International Journal of Molecular Sciences, 2011).
“Also recorded” adds a separate entry of the source.

molecular target: T1, CYP1A2 (Homo sapiens, UniProt P05177); assay: in vitro; assay type: biochemical; details: 1 μM active ingredient, Rh CYP1A2-mediated phenacetin O-deethylation, test dataset of 202 herb ingredients
T1 sequence (P05177 1-516): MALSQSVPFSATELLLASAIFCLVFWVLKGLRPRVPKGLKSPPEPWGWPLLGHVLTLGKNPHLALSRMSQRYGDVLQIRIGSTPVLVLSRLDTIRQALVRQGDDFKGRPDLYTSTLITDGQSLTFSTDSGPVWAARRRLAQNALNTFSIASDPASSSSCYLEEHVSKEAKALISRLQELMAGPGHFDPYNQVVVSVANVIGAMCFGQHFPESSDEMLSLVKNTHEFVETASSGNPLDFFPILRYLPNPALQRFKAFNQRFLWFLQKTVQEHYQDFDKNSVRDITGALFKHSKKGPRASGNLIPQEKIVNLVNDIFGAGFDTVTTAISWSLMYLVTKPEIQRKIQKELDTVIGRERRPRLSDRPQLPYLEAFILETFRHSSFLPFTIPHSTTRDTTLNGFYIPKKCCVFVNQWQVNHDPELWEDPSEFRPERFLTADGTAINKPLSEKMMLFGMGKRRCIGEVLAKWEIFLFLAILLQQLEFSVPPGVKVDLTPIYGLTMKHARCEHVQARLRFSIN
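Further: recombinant CYP1A2 incubated for 1 h at 37 °C, with the reaction started by an NADPH-generating system.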
Description: A total of 18 candidate compounds selected by pharmacophore and docking were examined for their potential to inhibit rhCYP1A2 phenacetin O-deethylation activity at a test concentration of 1 μM.
The basic incubation medium contained 100 mM potassium phosphate buffer (PH 7.4), 50 pmol recombinant human CYP1A2, 25 μM phenacetin and 1 μM active ingredients. The final incubation volume was 200 μL. After 5 min pre-incubation at 37 °C, the reaction was initiated by the addition of NADPH-generating system (5 mM MgCl2, 10 mM glucose 6-phosphates, 1 mM NADPH, and 2.5 U per mL glucose 6-phosphate dehydrogenase). Incubations were performed in a 37 °C shaking water bath for 1 h. Reactions were stopped by adding 0.4 mL of ice-cold acetonitrile containing 0.2 mg/L tinidazole (IS). […] The column was maintained at 35 °C and the injection volume was 10 μL.

Molecule | % of Control Indication Activity (Mean) [%]
Cc1c(O)c(C)c2oc(-c3ccc(O)cc3)cc(=O)c2c1O [Syzalterin] | > 90
COc1cc(-c2oc3cc(O)cc(O)c3c(=O)c2O[C@@H]2O[C@H](CO[C@@H]3O[C@@H](C)[C@H](O)[C@@H](O)[C@H]3O)[C@@H](O)[C@H](O)[C@H]2O[C@@H]2O[C@@H](C)[C@H](O)[C@@H](O)[C@H]2O)ccc1O [Typhaneoside] | > 90
COc1ccc(-c2oc3cc(OC)c(OC)c(O)c3c(=O)c2OC)cc1O [Vitexicarpin] | > 90
C[C@@H]1O[C@@H](O[C@@H]2[C@@H](O)[C@H](O)[C@@H](CO)O[C@H]2c2c(O)cc(O)c3c(=O)cc(-c4ccc(O)cc4)oc23)[C@H](O)[C@H](O)[C@H]1O [Vitexin rhamnoside] | > 90
Astragaloside | > 90
Echinacoside | > 90
Ginkgolide B | > 90
Lobetyolin | > 90
Pinoresinol diglucoside | > 90
Rhodiosin | > 90
Salvianolic acid B | > 90
Veratramin | > 90

same assay, conditions: 1 μM test compound, 25 μM phenacetin, average of duplicate determinations

% of Control Indication Activity [%] | Molecule
>90 | OC[C@H]1O[C@@H](Oc2cc(O)cc(/C=C/c3ccc(O)cc3)c2)[C@H](O)[C@@H](O)[C@@H]1O [zhang 713, Piceid]

same assay, conditions: 1 μM test concentration

Molecule | inhibitory activity to CYP1A2 (10% or greater inhibition at 1 μM)
O=c1ccc2ccc(Oc3cc4cc(O)c(O)cc4oc3=O)cc2o1 [zhang 300, Edgeworthin] | found to have inhibition of CYP1A2 activity; also recorded: confirmed to have inhibitory activities to CYP1A2
COc1cc(-c2oc3cc(O)c(OC)c(O)c3c(=O)c2O)ccc1O [zhang 817, Spinacetin] | found to have inhibition of CYP1A2 activity; also recorded: confirmed to have inhibitory activities to CYP1A2

same assay, conditions: 1 μM test concentration; listed as 284

Molecule | inhibitory activity to CYP1A2 (10% or greater inhibition at 1 μM)
COc1cc(C[C@H]2COC(=O)[C@@H]2Cc2ccc(O)c(OC)c2)ccc1O [zhang 284, (−)-Matairesinol] | found to have inhibition of CYP1A2 activity; also recorded: confirmed to have inhibitory activities to CYP1A2

same assay, conditions: 1 μM test concentration; listed as 616

Molecule | inhibitory activity to CYP1A2 (10% or greater inhibition at 1 μM)
COc1cc(C[C@H]2COC(=O)[C@@H]2Cc2ccc(O)c(OC)c2)ccc1O [zhang 616, (+)-Matairesinol] | found to have inhibition of CYP1A2 activity; also recorded: confirmed to have inhibitory activities to CYP1A2

same assay, conditions: human, recombinant enzyme, pH 7.4

activity at 1 h, 1 μM [%] | Molecule
< 90 | COc1cc(O)c2c(=O)cc(-c3ccc(O)c(O)c3)oc2c1 [zhang 272, 3′-hydroxy-Genkwanin]
> 90 | C[C@@H]1O[C@@H](Oc2c(-c3ccc(O)cc3)oc3cc(O)cc(O)c3c2=O)[C@H](O)[C@H](O)[C@H]1O [zhang 911, Kaempferol-3-O-α-L-rhamnopyranoside]

Continued, molecule first:

Molecule | activity at 1 h, 1 μM [%]
CNCC(O)c1ccc(O)cc1 (stereo not shown) [Synephrine] | > 90
COc1cc(/C=C/CO)cc(OC)c1O[C@@H]1O[C@H](CO)[C@@H](O)[C@H](O)[C@H]1O [Syringin] | > 90
COc1ccc2cc1Oc1ccc(cc1)C[C@H]1c3cc(c(OC)cc3CCN1C)Oc1c(OC)c(OC)cc3c1[C@H](C2)N(C)CC3 [Tetrandrine] | > 90
COc1cc(C(=O)O)ccc1O [Vanillic acid] | > 90

same assay, conditions: human, recombinant human CYP1A2, pH 7.4, probe phenacetin (25 μM), O-deethylation to acetaminophen; 1 μM active ingredient, Rh CYP1A2-mediated phenacetin O-deethylation, test dataset of 202 herb ingredients; read-out: % of Control Indication Activity (Mean)

activity at 1 h, 1 μM [%] | Molecule
28.3 | Cc1coc2c1C(=O)C(=O)c1c-2ccc2c1CCCC2(C)C [Tanshinone IIA]
> 90 | COc1c(O[C@@H]2O[C@H](CO)[C@@H](O)[C@H](O)[C@H]2O)cc2occ(-c3ccc(O)cc3)c(=O)c2c1O [Tectoridin]
> 90 | COc1cc2c(cc1OC)[C@@H]1Cc3ccc(OC)c(OC)c3CN1CC2 [Tetrahydropalmatine]
> 90 | Cc1ccc(C(C)C)c(O)c1 [Thymol]
74.6 | COc1c(O)cc(O)c2c(=O)cc(-c3ccccc3)oc12 [Wogonin]

Molecule | activity at 1 h, 1 μM [%]
O=c1cc(-c2ccc(O)cc2)oc2c([C@@H]3O[C@H](CO)[C@@H](O)[C@H](O)[C@H]3O)c(O)cc(O)c12 [Vitexin] | > 90

same assay, conditions: human, recombinant human CYP1A2, pH 7.4, probe phenacetin (25 μM), O-deethylation to acetaminophen; 1 μM test compound, 25 μM phenacetin, average of duplicate determinations; read-out: % of Control Indication Activity

activity at 1 h, 1 μM [%] | Molecule
> 90 | COc1cc(O)c2c(=O)c(O[C@@H]3O[C@H](CO)[C@H](O)[C@H](O)[C@H]3O)c(-c3ccc(O)c(O)c3)oc2c1 [zhang 83, rhamnetin 3-O-β-D-galactopyranoside]
> 90 | COc1cc(O)c2c(=O)c(O[C@@H]3O[C@H](CO)[C@@H](O)[C@H](O)[C@H]3O)c(-c3ccc(O)c(O)c3)oc2c1 [zhang 84, rhamnetin 3-O-β-D-glucopyranoside]
> 90 | CC(C)=CCC/C(C)=C/Cc1c(O)cc(O)c2c(=O)c3c(O)c4c(cc3oc12)OCO4 [zhang 89, 1,6,8-trihydroxy-2,3-methylenedioxy-5-geranylxanthone]
> 90 | O=c1c(O[C@@H]2OC[C@@H](O)[C@@H](O)[C@@H]2O)c(-c2ccc(O)c(O)c2)oc2cc(O)cc(O)c12 [zhang 205, quercetin-3-O-β-D-arabinopyranoside]
> 90 | O=c1c(OC2OC(CO)C(O)C2O)c(-c2ccc(O)c(O)c2)oc2cc(O)cc(O)c12 [zhang 206, quercetin-3-O-α-D-arabinofuranose]
> 90 | COc1cc(C2Oc3c(ccc4ccc(=O)oc34)O[C@H]2CO)ccc1O (stereo partly shown) [zhang 271, 5′-demethoxy Daphneticin]
< 90 | COc1cc(C[C@H]2COC(=O)[C@@H]2Cc2ccc(O)c(OC)c2)ccc1O [zhang 284, (−)-Matairesinol]
< 90 | O=c1ccc2ccc(Oc3cc4cc(O)c(O)cc4oc3=O)cc2o1 [zhang 300, Edgeworthin]
> 90 | COc1ccc(-c2oc3cc(O)cc(O)c3c(=O)c2OC)cc1OC [zhang 759, 3,3′,4′-Tri-Me ether-3,3′,4′,5,7-Pentahydroxyflavone]
< 90 | COc1cc(-c2oc3cc(O)c(OC)c(O)c3c(=O)c2O)ccc1O [zhang 817, Spinacetin]

same assay, conditions: recombinant enzyme, pH 7.4; 1 μM active ingredient, Rh CYP1A2-mediated phenacetin O-deethylation, test dataset of 202 herb ingredients; read-out: % of Control Indication Activity (Mean)

Molecule | activity at 1 h, 1 μM [%]
O=C1C[C@@H]2OCC=C3CN4CC[C@]56c7ccccc7N1[C@H]5[C@H]2[C@H]3C[C@H]46 [Strychnine] | > 90
